From US20110111016A1, “NON-DNA BASE-CONTAINING POLYNUCLEOTIDE COMPOSITIONS AND THEIR USE FOR THE MODULATION OF IMMUNE RESPONSES” (priority 2009, published 2011)

Columns and labels:
human TLR8 = molecular target: T1, human TLR8 (Homo sapiens, UniProt Q9NR97); test: NF-κB activation (secreted alkaline phosphatase reporter) in HEK293 cells expressing human TLR8; assay type: cell-based; settings: HEK293/hTLR8 cell line; polynucleotide final concentration 10 μg/mL; 16-20 hours
T1 construct: host or cells: HEK293
T1 sequence (Q9NR97 27-1041): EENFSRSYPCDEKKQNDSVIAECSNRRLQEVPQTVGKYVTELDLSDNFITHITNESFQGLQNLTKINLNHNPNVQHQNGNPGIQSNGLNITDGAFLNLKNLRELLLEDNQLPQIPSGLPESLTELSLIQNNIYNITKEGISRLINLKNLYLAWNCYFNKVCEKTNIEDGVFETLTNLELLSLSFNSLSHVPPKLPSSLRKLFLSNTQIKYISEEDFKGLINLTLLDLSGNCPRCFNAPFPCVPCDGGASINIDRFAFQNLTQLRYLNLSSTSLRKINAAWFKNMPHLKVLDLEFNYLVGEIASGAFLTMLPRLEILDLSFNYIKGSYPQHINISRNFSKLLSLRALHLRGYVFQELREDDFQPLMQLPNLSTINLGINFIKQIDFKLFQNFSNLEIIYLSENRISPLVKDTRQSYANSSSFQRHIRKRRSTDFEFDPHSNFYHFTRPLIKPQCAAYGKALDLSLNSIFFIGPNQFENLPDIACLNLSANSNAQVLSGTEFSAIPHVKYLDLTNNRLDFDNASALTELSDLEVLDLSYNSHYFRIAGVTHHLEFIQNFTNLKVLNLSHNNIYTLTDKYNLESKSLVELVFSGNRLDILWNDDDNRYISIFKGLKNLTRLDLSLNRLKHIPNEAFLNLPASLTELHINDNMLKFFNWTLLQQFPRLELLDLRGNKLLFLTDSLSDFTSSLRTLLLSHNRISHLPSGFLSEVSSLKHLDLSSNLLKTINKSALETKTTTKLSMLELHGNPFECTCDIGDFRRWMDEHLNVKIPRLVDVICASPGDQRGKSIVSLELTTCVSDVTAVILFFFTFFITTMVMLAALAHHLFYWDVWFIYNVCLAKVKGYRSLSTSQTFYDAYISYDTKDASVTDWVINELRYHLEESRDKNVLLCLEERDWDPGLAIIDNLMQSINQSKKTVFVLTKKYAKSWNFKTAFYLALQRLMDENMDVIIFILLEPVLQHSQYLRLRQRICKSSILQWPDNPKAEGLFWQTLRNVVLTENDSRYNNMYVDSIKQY
Description: Toll-like receptors (TLR) are known to interact with a number of natural and synthetic molecules that can function as immune adjuvants. Examples of these molecules are Poly (I:C) polynucleotides, lipopolysaccharide and CpG-containing polynucleotides. […] TLR engagement was determined by measurement of secreted alkaline phosphatase, under the control of a reporter inducible by NF-κB. Appropriate positive controls were used for each TLR. The non-DNA base-containing polynucleotides were dissolved in sterile water at a concentration of 100 μg/mL, and used at a final concentration of 10 μg/mL. HEK293 cells containing the appropriate TLR and NF-κB reporting system (InvivoGen, San Diego, Calif., USA) were placed in wells of 96 well plates (25,000-50,000 cells, in a final volume of 200 μL medium designed for the detection of NF-κB induced secreted alkaline phosphatase expression), and incubated with non-DNA base-containing polynucleotides or positive controls for 16-20 hours. TLR activating activity was determined by measurement of absorbance at 650 nm wavelength using a Coulter AD340C absorbance detector. The results shown are expressed as Optical Density (OD).

human PBMC = test: Induction of cytokines and chemokines from human PBMC, comparison with CpG polynucleotides (Milliplex MAP kit); assay type: cell-based; settings: for Cytokine, IL-6 / Cytokine, IL-10 / Cytokine, MCP-1 / Cytokine, RANTES (CCL5): human PBMC culture supernatant, 48 h, final concentration 10 μg/mL; for Chemokine (MCP-1, RANTES) inducing activity towards human PBMC (in words) / Interleukin (cytokine) inducing activity towards human PBMC (in words): in comparison to LPS and MCC, Table 14
Description: LPS and MCC were included as positive controls as described in Example 7. PBMC were isolated from whole blood using standard Ficoll-Paque Plus (GE Healthcare Life Sciences, Baie d'Urfé, QC, Canada) gradient centrifugation, and placed in tissue culture plates at a concentration of 1×10^6 cells/mL (total volume: 1 mL in RPMI 1640 medium containing 10% heat-inactivated FBS (both from Wisent, St-Bruno, QC, Canada) and 50 μg/mL gentamycin sulfate (Sigma-Aldrich Canada, Oakville, ON, Canada). Non-DNA base-containing polynucleotide SEQ ID NOs: 1, 2, 3, 4, 5, 6, 7, 8 and 9 were added to separate wells to give a final concentration of 10 μg/mL, LPS was added to give a final concentration of 10 μg/mL, and the non-CpG 4010, CpG 2336, CpG 2429 and CpG 7909 polynucleotides, SEQ ID NOs: 31, 33, 35 and 34, respectively, were added to give a final concentration of 10 μg/mL.
The cells were then cultivated for 48 h. Cytokines (interleukins IL-6 and IL-10, chemokines MCP-1 and RANTES) in the culture supernatant were measured using a Milliplex™ MAP kit (Millipore Corporation, Billerica, Mass., USA) on a Bio-Plex 200 system (Bio-Rad Laboratories, Hercules, Calif., USA). MCP-1, also known as monocyte chemotactic protein, is an essential chemokine required for effective monocyte and myeloid dendritic cell activation and trafficking across endothelial and epithelial barriers (see for example Henkel et al, 2004 Ann. Neurol. 55:221-235), and RANTES (Regulated on Activation, Normal T cell Expressed and Secreted, now more commonly known as CCL5) is produced by memory phenotype T cells and is chemotactic for and activates T-cells (see for example Swanson et al, 2002 Immunity 17:605-615).

Substance | TLR activation, Optical Density at 650 nm, hTLR8 (human TLR8) | Cytokine, IL-6 (human PBMC) [pg/mL] | Cytokine, IL-10 (human PBMC) [pg/mL] | Cytokine, MCP-1 (human PBMC) [pg/mL] | Cytokine, RANTES (CCL5) (human PBMC) [pg/mL] | Chemokine (MCP-1, RANTES) inducing activity towards human PBMC (in words) (human PBMC) | Interleukin (cytokine) inducing activity towards human PBMC (in words) (human PBMC)
IIGTII [SEQ ID NO: 3] | 0.128 | 1 | 0 | 57 | 72 | marginal or no | marginal or no
NebGGTGNeb (DNA NGGTGN; Nebularine at both ends, sugar and linkages not given here, further chemistry not given here) [SEQ ID NO: 1, 5′-OH, 3′-OH non-DNA base-containing polynucleotide] | 0.118 | 26 | 0 | 160 | 93 | marginal or no | marginal or no
UUGTUU [SEQ ID NO: 2] | 0.120 | 6 | 0 | 196 | 66 | marginal or no | marginal or no
